Patent publication US20220151994A1, “THERAPEUTIC METHODS AND COMPOSITIONS FOR TREATING LYMPHOMA USING 6,8-BISBENZYLTHIO-OCTANOIC ACID” (Rafael Pharmaceuticals, Inc., priority 2019, published 2022)

Tests used:
[1] = Animal studies of IV administration of CPI-613; type: in vivo
Procedure: CPI-613 must be administered IV, via an IV catheter that is free flowing and free of air in the dead space of the IV catheter, to minimize vascular irritation, inflammation and acute toxicity of CPI-613. […] To avoid local reactions at and around the site of administration, CPI-613 must be administered via a central venous catheter.
CPI-613 must not be administered as a bolus, but by infusion, at a rate of ˜0.5 mL/min, via a central venous catheter with D5W running at a rate of about 125-150 mL/hr. This is to minimize potential acute toxicity of CPI-613, according to animal studies.

[2] = Photosensitivity of CPI-613; type: physicochemical
Procedure: Each vial contains 10 mL of CPI-613 at a concentration 50 mg/mL, equivalent to 500 mg of CPI-613. The drug product of CPI-613 is a clear and colorless solution that is free of any particulate matter. CPI-613 should be stored under refrigeration, at 2°-8° C. (36°-46° F.), except when being prepared for administration.

[3] = Maximum tolerated dose of CPI-613 as a single agent; type: in vivo; settings: CPI-613 given as a single agent
Procedure: In the event that the DLT in ≥2 patients is not observed once the 3,000 mg/m^2 cohort has been tested, dose escalation is also considered to be complete since 3,000 mg/m^2 is the MTD of CPI-613 when given as a single agent. Three additional patients will be enrolled at the MTD for a total of six expected patients at this dose level.

[4] = Toxicities/side effects seen in prior CPI-613 studies treating other types of cancers; type: in vivo
From the text: Given the limited data for treating Burkitt lymphoma and other hematological malignancies with CPI-613, the following are the most frequent toxicities seen in prior CPI-613 studies treating other types of cancers.

[5] = Compatibility studies with IV infusion sets, IV bags and syringes (Study COM-003); type: physicochemical
From the text: Therefore, DEHP-containing IV infusion sets, IV bags or syringes should not be used in mixing or administration of CPI-613. […] Therefore, these 4 types of IV infusion sets, and IV infusion sets that are made with the same materials, can be used to administer CPI-613. […] Therefore, any of these types of syringes, and syringes that are made with the same materials, can be used to administer CPI-613. Also, glass syringes can also be used, since glass (such as glass containers) is compatible with CPI-613 drug product. • Norm-Ject, polyethlyene barrel, polyethylene plunger, latex free (Henke Sass Wolf GMBH) syringes • Becton Dickinson syringes • Terumo syringes • Monoject syringes • Glass syringes

[6] = pH and stability of CPI-613 drug product diluted with D5W; type: physicochemical; settings: solution in 1M aqueous triethanolamine diluted from 50 mg/mL to as low as 4 mg/mL with D5W
Procedure: A solution of 6,8-bis-benzylthio-octanoic acid in 1M aqueous triethanolamine is diluted from 50 mg/mL to as low as 4 mg/mL with sterile 5% dextrose for injection (D5W) prior to administration. After dilution with D5W, the solution is clear and has a pH of 8.4-8.8. The D5W solution of 6,8-bis-benzylthio-octanoic acid is administered as an IV infusion over two hours via a central venous catheter on days 1-5 of every cycle.
CPI-613 must be diluted from 50 mg/mL to 12.5 mg/mL with 5% Dextrose Water (D5W) (i.e., 1 portion of CPI-613 diluted with 3 portions of D5W) prior to administration. The diluted drug product should be visually inspected for clarity. […] After dilution with sterile D5W, the solution is clear and has a pH of 8.4-8.8.

With O=C(O)CCCCC(CCSCc1ccccc1)SCc1ccccc1 (stereo not drawn) [CPI-613, 6,8-bis-benzylthio-octanoic acid] the “Effect of accidental co-administration of extra air in the dead space of IV catheters” value ([1]; animal studies, IV administration) was “potential to induce acute toxicity”, the “Effect of accidental leakage into the perivascular space during IV administration” value ([1]; in vivo, iv) was “can induce significant local inflammation” and the Photosensitivity [2] was “slightly photosensitive”. The MTD [3] was 3,000 mg/m^2, the Common side effects [4] was “nausea, leukocytopenia, neutrophils (neutropenia), fatigue, and elevated alkaline phosphatase (ALP)” and the “Rare but serious side effects” value [4] was “infections, disseminated intravascular coagulation, elevated troponin, and renal failure”. For the same molecule, the “Compatibility with IV infusion sets” value ([5]; PVC, latex and polyethylene sets) was “compatible with 4 commonly used IV infusion sets”, the “Leaching of DEHP from IV infusion sets and IV bags” value ([5]; Study COM-003) was “can cause leaching of Diethylhexyl Phthalate (DEHP)” and the “pH of solution after dilution with D5W” value [6] was 8.4-8.8.
